# Entries after “also recorded” stand apart in the source; their conditions may differ.
# What was measured:
# [1] = test system: HCC1806 triple-negative breast cancer cells; assay: MTS cell viability assay (72 h); type: cell-based, human; details: HCC1806, conjugate vs DM1/DM4
# Description: HCC1806 cells were grown in RPMI 1640 medium, and MTS assays were performed to check cell viability. Cells (2500–3000 cells/well) were grown in flat-bottomed 96-well plates for 24 h, and then serial dilutions of the compound were added, and cells were allowed to incubate for a further 72 h. At the end of the 72-h incubation period, the medium was removed, and 100 μL of a solution including a mixture of MTS and PMS was added. The cells were incubated for 1.5 h at 37 °C in a humidified incubator with 5% CO2 to allow viable cells to convert tetrazolium salts to formazan. Conversion to formazan was measured by absorbance (490 nm) using a BioTek PowerWave-X absorbance microplate meter. The data collected were normalized using a DMSO-treated control (100% viability) and a background control (0% viability) to verify growth inhibition.
# [2] = Plasma stability, 24 h incubation with plasma (HPLC); type: in vitro ADME
# Description: Zn8_DM1: 0H VS. 24H in plasma.
# Zn10_DM4: 0H VS. 24H in plasma.
# Supporting Figure S1. Incubation of Linker-drug 3 and 4, conjugates Zn8_DM1 and
# Zn10_DM4, DM1 and DM4 with plasma for 24 hrs. HPLC condition is listed below. […]
# [3] = PS SPR binding assay (Biacore T200, L1 chip); details: DOPC/DOPS (3:1, v/v) liposomes on L1 chip, 25 °C
# Description: Phospholipids, 1,2-dioleoyl-sn-glycero-3-phosphocholine (DOPC) and 1,2-dioleoyl-sn-glycero-3-[phosphate-L-serine] (DOPS) were obtained as chloroform solutions from Avanti Polar Lipids (Alabaster, AL, USA). These stock solutions were mixed in the specified proportions. A 0.4 mL aliquot of the lipid solution at a 10 mg/mL concentration was added to a round bottom flask and evaporated under a stream of N2 to provide a thin lipid film. The lipid films were rehydrated in PBS buffer for at least 1 h at room temperature. The resulting suspension was extruded through a 100 nm polycarbonate filter using an Avanti MiniExtruder according to the manufacturer’s instructions. Zeta potential (ZP) and liposome size distribution were recorded by dynamic light scattering (DLS) and microelectrophoresis using a Zetasizer Nano ZS instrument. The binding kinetics between conjugates and liposomes were recorded at 25 °C using a Biacore T200 biosensor equipped with an L1 sensor chip (GE Healthcare, Chicago, IL, USA). The new sensor chip was pretreated with running buffer (5% DMSO in phosphate buffered saline (PBS) at a pH of 7.4) and two consecutive 30 s pulses of 2:3 v/v 50 mM HCl/isopropanol at a flow rate of 30 μL/min. New liposome capture plates were prepared for each binding cycle. In PBS buffer, liposomes are diluted to 0.5–1 mM and captured to saturation in isolated flow cells at 2–5 μL/min (30–150 s). […]
# [4] = test system: HCC1806 human triple-negative breast cancer tumors; assay: HCC1806 xenograft tumor efficacy; type: in vivo, female nude mice
# Description: Cancer cells suspended in RPMI 1640 medium (11835-030, Thermo Fisher Scientific, Waltham, MA, USA) were mixed with Matrigel™ (356237, BD Biosciences, Franklin Lakes, NJ, USA) in a 1:1 ratio. Human triple-negative breast cancer HCC1806 (1 × 10^6 cells) cells were inoculated subcutaneously into the left flank of 6-week-old female nude mice (BioLASCO Taiwan, Taipei, Taiwan) using a 1 mL syringe with a 24G needle (AN-2425R, Terumo Medical Corp., Tokyo, Japan). Tumor dimensions were measured twice weekly using electronic calipers (FOW54-200-777, PRO-MAX), and the volume of tumor grown subcutaneously (mm^3) was calculated by the formula Volume = (length × width^2)/2. A combination of 10% DMA/20% Cremophor EL/70% 5% dextrose injection (D5W) was formulated to treat HCC1806 xenograft tumors. Mice with HCC1806 tumors were grouped and administered the indicated dosing regimen of 1 mg/kg for the conjugate and 0.3 mg/kg for the cytotoxic payloads DM1 and DM4 twice-weekly (day 1 and day 4) for 2 weeks when the mean tumor volume was approximately 200–250 mm^3 or 850–900 mm^3 (large tumors). The conjugate dose of 2 mg/kg was administered weekly for the large tumor study. The body weight and tumor volume of mice were measured twice weekly. In addition, a previously reported oncogene-induced, sorafenib-resistant HCC mouse model was used in the current study to examine the antitumor activities of synthesized compounds. Briefly, plasmids including transposase (pCMV(CAT)T7-SB100), human Akt1, and luciferase (pKT2/CLP-AKT-2A-OVA-HBc-HBs-LUC) and the N-Ras V12 mutant (pT/Caggs-NRASV12) were hydrodynamically injected (HDI) and the liver was monitored for the appearance of HCC. HCC mice with a total flux of more than 1 × 10^9 photons/s from IVIS imaging were used as treatment conjugates. The indicated conjugate was administered intravenously at 1 mg/kg 3 times per week over 2 weeks. IVIS imaging was repeatedly performed to follow tumor progression, and tumor tissue from treated HCC mice was collected for histological examination and RNA extraction after administration.
smiles,measurement,setting,value
COc1cc2cc(c1Cl)N(C)C(=O)CC(OC(=O)C(C)N(C)C(=O)CCSC(=O)c1ccc(CN(CCOCCOCCNC(=O)c3ccc(CN(CCCCOc4cc(CN(Cc5ccccn5)Cc5ccccn5)cc(CN(Cc5ccccn5)Cc5ccccn5)c4)C(=O)C4(c5ccc(Cl)cc5)CCCCC4)cc3)C(=O)C3(c4ccc(Cl)cc4)CCCCC3)cc1)C1(C)OC1C(C)C1CC(O)(NC(=O)O1)C(OC)C=CC=C(C)C2.O=[N+]([O-])[O-].O=[N+]([O-])[O-].O=[N+]([O-])[O-].O=[N+]([O-])[O-].[Zn+2].[Zn+2] (centres unmarked) [Zn8_DM1],fold attenuation in cytotoxicity relative to parent payload,[1],2.5–6 fold
same,cleavage of the maytansinoid after incubation with plasma,[2],No cleavage
same,association with PS-coated liposomes (SPR),[3],still allowed recognition
same,anti-HCC1806 tumor growth activity,"[4]; 1 mg/kg i.v. twice weekly for 2 weeks, tumors 200–250 mm^3",significant activities; also recorded: shrinkage of HCC1806 tumor growth
same,effect on large HCC1806 tumors,"[4]; 2 mg/kg per week for two weeks, tumors ~900 mm^3",could readily arrest or shrink the growth of larger tumors

# — PMC9323955, “Synthesis and Evaluation of Small Molecule Drug Conjugates Harnessing Thioester-Linked Maytansinoids” (Pharmaceutics, 2022)
